Assay results published in US20110178396A1, “Nicotinamide Derivatives” (CRC FOR BIOMEDICAL IMAGING DEVELOPMENT LTD., priority 2008, published 2011).

System: B16F0 melanoma tumour
Assay: Biodistribution in B16 melanoma bearing mice
Assay type: in vivo, C57BL/6J mice
Settings: for Organ distribution Intestine / Organ distribution Liver / Organ distribution Spleen / Organ distribution Stomach / Organ distribution Thyroid / Organ distribution Tumour: B16F0 tumour, mean ± S.D.
Protocol: Animal experiments were performed in compliance with the NHMRC Australian Code of Practice for the care and use of animals for scientific purposes. Female C57BL/6J black and BALB/c nude albino mice of 5 weeks age were obtained from the Animal Resources Centre, Western Australia. B16F0 murine melanoma cells were originally obtained from European Collection of Cell Cultures (UK) and A375 human amelanotic melanoma cells were originally obtained from American Type Culture Collection (USA). Before transplantation, B16F0 and A375 melanoma cells were maintained as a monolayer in RPMI culture medium supplemented with 10% foetal calf serum and antibiotics and passaged with trypsinisation. Early passages were frozen and stored in liquid nitrogen. Cells were passaged to P=10 and then discarded. Frozen aliquots were grown in a monolayer culture to between 80-95% confluence and for transplantation were trypsinised and washed with Ca^2+ and Mg^2+ free phosphate buffered saline (PBS). For inoculation, B16F0 melanoma cells were resuspended in Ca^2+ and Mg^2+ free PBS at 3 or 5×10^6 viable cells per ml and 0.1 ml was subcutaneously injected at the left flank of 6-7 weeks old C57BL/6J mice. Eleven days later, tumours could be palpated in >98% of inoculated animals. A375 human melanoma cells were resuspended at 1×10^7 viablecells per ml and 0.1 ml was injected subcutaneously at the left flank of 6 weeks old BALB/c nude mice and 25-26 days later tumours could be palpated with ˜60% of inoculated animals developing tumours.
Eleven days (B16F0 melanoma) and 25 days (A375 human melanoma) after tumour transplantation, the [^18F]nicotinamides (0.5-1.5 MBq, 100 μl) and [^123I]nicotinamide (0.37-0.74 MBq, 100 μl) derivatives were injected intravenously via the tail vein into mice (15-18 g). Time points of 1, 3, 6, 24, 48, 72 h after injection were chosen for determining the distribution of each compound in various organs and tissues for the iodine-123 labelled compounds and between 15 min and 6 hours (e.g. 15 min, 30 min, 1 h, 2 h, 4 h or 6 h) were chosen for the ^18F-labelled compounds. At defined times post injection, groups of mice (n=5) were weighed, sacrificed by CO2 administration followed by cervical dislocation and dissected. Selected organs were weighed and their radioactivity measured with a γ-counter. The remaining activity in the carcass was also determined in order to obtain the total activity in the mouse at defined time points. The fraction of injected activity (% ID) in the organ was calculated by comparison with suitable dilutions of the injected dose. Then, the radioactivity concentration in the organ (% ID/g) was found by dividing the % ID for each organ by the weight of the organ.

[1] = B16 melanoma bearing mice, 15 min
[2] = B16 tumour, C57BL/6J mice, 1 h, mean ± SD, n = 5
[3] = B16 tumour, C57BL/6J mice, 6 h, mean ± SD, n = 5
[4] = B16 tumour, C57BL/6J mice, 24 h, mean ± SD, n = 5

With CCN(CC)CCNC(=O)c1ccnc(F)c1 [[^18F]MEL8, 6-Fluoro-N-[2-(diethylamino)ethyl]isonicotinamide] the “uptake BLOOD” value [1] was 2.55 % ID/g, the “uptake BONE” value [1] was 4.03 % ID/g and the “uptake BRAIN” value [1] was 3.47 % ID/g. The “uptake EYES” value [1] was 17.25 % ID/g, the “uptake GIT” value [1] was 7.03 % ID/g and the “uptake HEART” value [1] was 3.51 % ID/g. The “uptake KIDNEY” value [1] was 19.45 % ID/g, the “uptake LIVER” value [1] was 12.65 % ID/g and the “uptake LUNGS” value [1] was 5.67 % ID/g. For the same compound, the “uptake MUSCLE” value [1] was 4.16 % ID/g, the “uptake SKIN” value [1] was 2.40 % ID/g and the “uptake SPLEEN” value [1] was 10.27 % ID/g. For the same compound, the “uptake STOMACH” value [1] was 13.20 % ID/g, the “uptake THYROID” value [1] was 4.81 % ID/g and the “uptake TUMOUR” value [1] was 6.99 % ID/g. The “uptake BLOOD” value (B16 melanoma bearing mice, 1 h) was 0.77 % ID/g, the “uptake BONE” value (B16 melanoma bearing mice, 1 h) was 1.52 % ID/g and the “uptake BRAIN” value (B16 melanoma bearing mice, 1 h) was 1.37 % ID/g. For the same compound, the “uptake EYES” value (B16 melanoma bearing mice, 1 h) was 23.66 % ID/g, the “uptake GIT” value (B16 melanoma bearing mice, 1 h) was 2.85 % ID/g and the “uptake HEART” value (B16 melanoma bearing mice, 1 h) was 1.14 % ID/g. The “uptake KIDNEY” value (B16 melanoma bearing mice, 1 h) was 4.75 % ID/g, the “uptake LIVER” value (B16 melanoma bearing mice, 1 h) was 3.19 % ID/g and the “uptake LUNGS” value (B16 melanoma bearing mice, 1 h) was 1.81 % ID/g. The “uptake MUSCLE” value (B16 melanoma bearing mice, 1 h) was 1.27 % ID/g, the “uptake SKIN” value (B16 melanoma bearing mice, 1 h) was 0.88 % ID/g and the “uptake SPLEEN” value (B16 melanoma bearing mice, 1 h) was 3.19 % ID/g. For the same compound, the “uptake STOMACH” value (B16 melanoma bearing mice, 1 h) was 5.25 % ID/g, the “uptake THYROID” value (B16 melanoma bearing mice, 1 h) was 2.22 % ID/g and the “uptake TUMOUR” value (B16 melanoma bearing mice, 1 h) was 12.22 % ID/g. The “uptake BLOOD” value (B16 melanoma bearing mice, 3 h) was 0.12 % ID/g, the “uptake BONE” value (B16 melanoma bearing mice, 3 h) was 0.77 % ID/g and the “uptake BRAIN” value (B16 melanoma bearing mice, 3 h) was 0.19 % ID/g. The “uptake EYES” value (B16 melanoma bearing mice, 3 h) was 18.81 % ID/g, the “uptake GIT” value (B16 melanoma bearing mice, 3 h) was 0.72 % ID/g and the “uptake HEART” value (B16 melanoma bearing mice, 3 h) was 0.33 % ID/g. For the same compound, the “uptake KIDNEY” value (B16 melanoma bearing mice, 3 h) was 0.45 % ID/g, the “uptake LIVER” value (B16 melanoma bearing mice, 3 h) was 0.42 % ID/g and the “uptake LUNGS” value (B16 melanoma bearing mice, 3 h) was 0.37 % ID/g. For the same compound, the “uptake MUSCLE” value (B16 melanoma bearing mice, 3 h) was 0.28 % ID/g, the “uptake SKIN” value (B16 melanoma bearing mice, 3 h) was 0.15 % ID/g and the “uptake SPLEEN” value (B16 melanoma bearing mice, 3 h) was 2.32 % ID/g. The “uptake STOMACH” value (B16 melanoma bearing mice, 3 h) was 0.82 % ID/g, the “uptake THYROID” value (B16 melanoma bearing mice, 3 h) was 1.48 % ID/g and the “uptake TUMOUR” value (B16 melanoma bearing mice, 3 h) was 8.80 % ID/g. The “uptake BLOOD” value (B16 melanoma bearing mice, 6 h) was 0.06 % ID/g, the “uptake BONE” value (B16 melanoma bearing mice, 6 h) was 0.43 % ID/g and the “uptake BRAIN” value (B16 melanoma bearing mice, 6 h) was 0.07 % ID/g. For the same compound, the “uptake EYES” value (B16 melanoma bearing mice, 6 h) was 16.49 % ID/g, the “uptake GIT” value (B16 melanoma bearing mice, 6 h) was 0.23 % ID/g and the “uptake HEART” value (B16 melanoma bearing mice, 6 h) was 0.17 % ID/g. The “uptake KIDNEY” value (B16 melanoma bearing mice, 6 h) was 0.25 % ID/g, the “uptake LIVER” value (B16 melanoma bearing mice, 6 h) was 0.60 % ID/g and the “uptake LUNGS” value (B16 melanoma bearing mice, 6 h) was 0.14 % ID/g. For the same compound, the “uptake MUSCLE” value (B16 melanoma bearing mice, 6 h) was 0.17 % ID/g, the “uptake SKIN” value (B16 melanoma bearing mice, 6 h) was 0.29 % ID/g and the “uptake SPLEEN” value (B16 melanoma bearing mice, 6 h) was 1.31 % ID/g. For the same compound, the “uptake STOMACH” value (B16 melanoma bearing mice, 6 h) was 0.30 % ID/g, the “uptake THYROID” value (B16 melanoma bearing mice, 6 h) was 1.02 % ID/g and the “uptake TUMOUR” value (B16 melanoma bearing mice, 6 h) was 7.20 % ID/g.

With CCN(CC)CCNC(=O)c1ccc(I)nc1 [[^123I]14, N-(2-(Diethylamino)ethyl)-6-iodonicotinamide] the “Organ distribution Intestine” value (C57BL/6J mice, 1 h, n = 5) was 10 ± 1 % ID/organ, the “Organ distribution Liver” value (C57BL/6J mice, 1 h, n = 5) was 2.7 ± 0.7 % ID/organ and the “Organ distribution Spleen” value (C57BL/6J mice, 1 h, n = 5) was 0.31 ± 0.07 % ID/organ. For the same compound, the “Organ distribution Stomach” value (C57BL/6J mice, 1 h, n = 5) was 9 ± 1 % ID/organ, the “Organ distribution Thyroid” value (C57BL/6J mice, 1 h, n = 5) was 1.2 ± 0.7 % ID/organ and the “Organ distribution Tumour” value (C57BL/6J mice, 1 h, n = 5) was 1.8 ± 0.4 % ID/organ. The “Organ distribution Intestine” value (C57BL/6J mice, 6 h, n = 5) was 5 ± 1 % ID/organ, the “Organ distribution Liver” value (C57BL/6J mice, 6 h, n = 5) was 1.3 ± 0.4 % ID/organ and the “Organ distribution Spleen” value (C57BL/6J mice, 6 h, n = 5) was 0.17 ± 0.05 % ID/organ. The “Organ distribution Stomach” value (C57BL/6J mice, 6 h, n = 5) was 7 ± 2 % ID/organ, the “Organ distribution Thyroid” value (C57BL/6J mice, 6 h, n = 5) was 3.3 ± 0.8 % ID/organ and the “Organ distribution Tumour” value (C57BL/6J mice, 6 h, n = 5) was 1.4 ± 0.8 % ID/organ. For the same compound, the “Organ distribution Intestine” value (C57BL/6J mice, 24 h, n = 5) was 0.35 ± 0.03 % ID/organ, the “Organ distribution Liver” value (C57BL/6J mice, 24 h, n = 5) was 0.19 ± 0.04 % ID/organ and the “Organ distribution Spleen” value (C57BL/6J mice, 24 h, n = 5) was 0.01 ± 0.00 % ID/organ. The “Organ distribution Stomach” value (C57BL/6J mice, 24 h, n = 5) was 0.4 ± 0.1 % ID/organ, the “Organ distribution Thyroid” value (C57BL/6J mice, 24 h, n = 5) was 6.5 ± 2.8 % ID/organ and the “Organ distribution Tumour” value (C57BL/6J mice, 24 h, n = 5) was 0.11 ± 0.06 % ID/organ. The “tumour standardized uptake value (SUVt)” value (B16 tumour, C57BL/6J mice, 1 h) was 1.2 ± 0.1, the “Uptake Lung” value [2] was 4.8 ± 0.4 % ID/g and the “uptake BLOOD” value [2] was 6.9 ± 0.6 % ID/g. The “uptake BRAIN” value [2] was 0.36 ± 0.05 % ID/g, the “uptake HEART” value [2] was 2.3 ± 0.2 % ID/g and the “uptake KIDNEY” value [2] was 4.2 ± 0.6 % ID/g. For the same compound, the “uptake LIVER” value [2] was 3.1 ± 0.6 % ID/g, the “uptake TUMOUR” value [2] was 3.8 ± 0.2 % ID/g and the “tumour standardized uptake value (SUVt)” value (B16 tumour, C57BL/6J mice, 6 h) was 1.0 ± 0.1. The “Uptake Lung” value [3] was 2.6 ± 0.8 % ID/g, the “uptake BLOOD” value [3] was 3.6 ± 1.0 % ID/g and the “uptake BRAIN” value [3] was 0.14 ± 0.04 % ID/g. The “uptake HEART” value [3] was 1.1 ± 0.3 % ID/g, the “uptake KIDNEY” value [3] was 2.4 ± 0.7 % ID/g and the “uptake LIVER” value [3] was 1.4 ± 0.5 % ID/g. The “uptake TUMOUR” value [3] was 2.3 ± 0.5 % ID/g, the “tumour standardized uptake value (SUVt)” value (B16 tumour, C57BL/6J mice, 24 h) was 0.5 ± 0.2 and the “Uptake Lung” value [4] was 0.2 ± 0.1 % ID/g. For the same compound, the “uptake BLOOD” value [4] was 0.25 ± 0.12 % ID/g, the “uptake BRAIN” value [4] was 0.02 % ID/g and the “uptake HEART” value [4] was 0.10 ± 0.05 % ID/g. The “uptake KIDNEY” value [4] was 0.18 ± 0.05 % ID/g, the “uptake LIVER” value [4] was 0.20 ± 0.04 % ID/g and the “uptake TUMOUR” value [4] was 0.26 ± 0.14 % ID/g.
